Tests used:
[1] = test system: HCT-116 cancer cells; assay: MTT cytotoxicity assay, HCT-116; assay type: cell-based; conditions: Homo sapiens, HCT-116, 48 h, read-out: IC50 ± SD
[2] = test system: WI-38 cells; assay: MTT cytotoxicity assay, normal WI-38; assay type: cell-based; conditions: Homo sapiens, WI-38, 48 h, read-out: IC50 ± SD
[3] = target: EGFR (Homo sapiens, UniProt P00533); assay: EGFR kinase inhibitory assay; assay type: biochemical; conditions: for IC50: EGFR IC50 ± SD
[4] = test system: P53, Bax, caspase-3, caspase-8, caspase-9, Bcl-2 genes in HCT-116 cells; assay: RT-PCR gene expression of apoptosis-related genes; assay type: cell-based; conditions: HCT-116, IC50 = 1.34 μM, 48 h
[5] = test system: HCT-116 cells; assay: Annexin V/PI staining flow cytometry; assay type: cell-based
[6] = test system: HCT-116 cells; assay: DNA-content cell cycle analysis by flow cytometry; assay type: cell-based; conditions: HCT-116, IC50 = 1.34 μM, 48 h; control 54.19%
[7] = three replicates, concentrations 0.001-10 μM

Chain of EGFR (P00533 25-1210): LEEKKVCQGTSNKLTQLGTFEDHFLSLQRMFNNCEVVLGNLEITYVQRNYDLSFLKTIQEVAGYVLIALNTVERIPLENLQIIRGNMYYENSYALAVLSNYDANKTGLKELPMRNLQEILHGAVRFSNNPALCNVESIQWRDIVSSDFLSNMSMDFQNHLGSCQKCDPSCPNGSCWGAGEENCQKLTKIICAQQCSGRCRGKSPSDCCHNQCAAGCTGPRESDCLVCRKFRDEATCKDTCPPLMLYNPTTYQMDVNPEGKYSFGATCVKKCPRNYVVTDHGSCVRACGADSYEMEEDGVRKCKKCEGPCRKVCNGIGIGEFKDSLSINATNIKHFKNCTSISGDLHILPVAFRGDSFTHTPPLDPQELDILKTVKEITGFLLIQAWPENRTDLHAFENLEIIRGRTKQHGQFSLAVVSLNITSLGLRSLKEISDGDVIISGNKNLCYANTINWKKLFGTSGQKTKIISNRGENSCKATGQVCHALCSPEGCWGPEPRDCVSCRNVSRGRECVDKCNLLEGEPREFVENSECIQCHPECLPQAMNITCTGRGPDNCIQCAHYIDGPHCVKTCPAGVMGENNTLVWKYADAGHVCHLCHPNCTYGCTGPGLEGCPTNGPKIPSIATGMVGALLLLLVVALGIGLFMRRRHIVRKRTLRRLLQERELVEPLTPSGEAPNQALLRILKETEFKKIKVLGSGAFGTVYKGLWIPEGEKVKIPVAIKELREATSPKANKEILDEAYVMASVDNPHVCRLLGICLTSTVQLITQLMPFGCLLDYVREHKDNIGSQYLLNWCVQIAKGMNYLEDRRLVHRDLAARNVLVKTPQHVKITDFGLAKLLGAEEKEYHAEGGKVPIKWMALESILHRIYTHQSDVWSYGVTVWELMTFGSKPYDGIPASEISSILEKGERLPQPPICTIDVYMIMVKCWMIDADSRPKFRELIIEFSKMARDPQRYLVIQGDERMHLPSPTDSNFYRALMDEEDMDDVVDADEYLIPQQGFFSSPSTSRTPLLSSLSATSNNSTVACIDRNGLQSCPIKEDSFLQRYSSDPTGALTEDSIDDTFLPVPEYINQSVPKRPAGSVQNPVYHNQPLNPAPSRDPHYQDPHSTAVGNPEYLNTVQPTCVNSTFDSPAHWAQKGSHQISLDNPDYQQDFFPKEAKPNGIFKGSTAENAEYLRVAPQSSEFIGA

CC1=C(C(=O)Nc2cccnc2)C(c2ccc3ccc4cccc5ccc2c3c45)NC(=S)N1 (stereo not drawn) [Compound 4c, 6-Methyl-4-(pyren-1-yl)-N-(pyridin-3-yl)-2-thioxo-1,2,3,4-tetrahydropyrimidine-5-carboxamide]
IC50 [1]: 1.9 ± 0.3 µM | IC50 [2]: ≥ 50 µM | IC50 [3, 7]: 0.0949 ± 0.00495 µM

CC1=C(C(=O)Nc2ccccc2)C(c2ccc3ccc4cccc5ccc2c3c45)NC(=S)N1 (stereo not drawn) [Compound 4a, 6-Methyl-N-phenyl-4-(pyren-1-yl)-2-thioxo-1,2,3,4-tetrahydropyrimidine-5-carboxamide]
IC50 [1]: 4.8 µM | IC50 [2]: ≥ 50 µM | IC50 [3, 7]: 0.104 ± 0.00567 µM | EGFR inhibition percentage ([3]; concentration not given): 82.3%

CC1=C(C(=O)Nc2ccccn2)C(c2ccc3ccc4cccc5ccc2c3c45)NC(=S)N1 (stereo not drawn) [Compound 4b, 6-Methyl-4-(pyren-1-yl)-N-(pyridin-2-yl)-2-thioxo-1,2,3,4-tetrahydropyrimidine-5-carboxamide]
IC50 [1]: 1.34 ± 0.4 µM | IC50 [2]: ≥ 50 µM | IC50 [3, 7]: 0.077 ± 0.00436 µM | Bax gene expression fold change [4]: 3.54 fold change | P53 gene expression fold change [4]: 6.85 fold change | caspase-3 gene expression fold change [4]: 8.37 fold change | caspase-8 gene expression fold change [4]: 2.3 fold change | caspase-9 gene expression fold change [4]: 6.80 fold change | Bcl-2 gene expression fold change ([4]; antiapoptotic gene, decreased): 0.37 fold change | apoptosis induction versus control ([5]; HCT-116): 30.2 fold | necrosis ([5]; HCT-116, IC50 = 1.34 μM, 48 h, Q1, control 2.13%): 5.58% | late apoptosis ([5]; HCT-116, IC50 = 1.34 μM, 48 h, Q2): 7.36% | early apoptosis ([5]; HCT-116, IC50 = 1.34 μM, 48 h, Q4): 19.24% | cells that died by apoptosis (total) ([5]; HCT-116, treated at IC50 = 1.34 μM, 48 h, control 0.88%): 26.60% | cell population at G1-phase (%DIP G1) [6]: 87.55%

C#Cc1cccc(Nc2ncnc3cc(OCCOC)c(OCCOC)cc23)c1 [Erlotinib, reference compound]
IC50 [1]: 1.32 ± 0.2 µM | IC50 [2]: ≥ 50 µM

Cc1[nH]c(=O)nc2c1c(=O)oc1ccc3ccccc3c12 [Compound 16, 4-Methyl-2H-benzo[5,6]chromeno[4,3-d]pyrimidine-2,5(3H)-dione]
IC50 [1]: 6.46 µM | IC50 [2]: ≥ 50 µM | EGFR IC50 ± SD [3, 7]: non-detected

From publication PMC12395000 (RSC Advances, 2025)
